Reference: publication PMC6130495, “Effect of piplartine and cinnamides on Leishmania amazonensis, Plasmodium falciparum and on peritoneal cells of Swiss mice” (Pharmaceutical Biology, 2017)
Several values for one entry are separate records, joined by “and”; a condition that tells them apart may be missing. Equal entries are not always repeated. Where two headings read alike, the source gives them in different places.

Tests used:
[1] = system: P. falciparum-infected erythrocytes; assay: Growth inhibition of P. falciparum-infected erythrocytes, optical microscopy; format: cell-based; details: Plasmodium falciparum, Erythrocyte; for inhibition at 0.008 µg/mL: positive control, 8 ng/mL
Procedure: The Pf/Unb169 strain, kept under cryopreservation was culture together with O^+ erythrocytes in RPMI 1640 medium, supplemented with hypoxanthine (0.25 mg/dL), 10% of human serum, and gentamicin ([…]), at 37 °C in air with 5% CO2. For the assays, a suspension with 3% of hematocrit and 0.6% of infected erythrocytes was prepared.
To assess inhibitory or cytotoxic concentrations of the compounds (1–5), able to eliminate 50% of the cells in the cultures of L. amazonensis (IC50) and cytotoxic concentrations (CC50) in the cultures of peritoneal cell, MTT [3-(4,5-dimethylthiazol-2-yl)-2,5-diphenyltetrazolium bromide] (Sigma-Aldrich) method was used. This method evaluates the cell viability by the activity of mitochondrial succinate dehydrogenase enzyme that cleaves the tetrazolium salt to form formazan crystals in living cells. For the cultures of P. falciparum-infected erythrocytes, the IC50 were determined by optical microscopy. The concentrations for the compounds tested were calculated in μg/mL (ranging from 0 to 256 μg/mL), as well their equivalent in […], being: 1 (0 to 806.7 μM), 2 (0 to 833.0 μM), 3 (0 to 923.0 μM), 4 (0 to 832.8 μM) and 5 (0 to 923.1 μM).
A suspension of O^+ human erythrocytes (3% hematocrit and 0.6% of infected erythrocytes) was incubated at 37 °C with 5% of CO2 in air, for 48 or 72 h in RPMI 1640 medium supplemented with 10% human serum, in triplicate, in 96 wells plate, with different concentrations (0 to 256 μg/mL) of compounds (1–5). As positive control, infected erythrocytes were incubated with 8 ng/mL of artesunate (Artemix Ativus, São Paulo, Brazil) and, as negative control, they were incubated exclusively with the diluent (complete RPMI 1640 medium); 50% of the medium, for the cultures incubated for 72 h, was exchanged after 48 h, at the same concentrations as before. After that, 150 μL of the supernatant of the cultures were discarded, and a drop of suspension distended onto slides for microscopy, dried and fixed with methanol, was stained for 15 min with 10% of Giemsa solution (PBS, pH 6.9). The erythrocytes (1000 cells/slide) were analyzed by a single observer with optical microscopy and the results were expressed in percentage of infected cells.
The SI for each amide (1–5) was obtained by dividing the concentration able to eliminate 50% of peritoneal cells (CC50) by the concentration able to inhibit the growth of 50% of the protozoa (IC50). Compounds which presented SI greater than 10 were considered potentially microbicides and safe for the host cells (Bézivin et al. [2003]).

[2] = system: L. amazonensis promastigotes; assay: Inhibition of L. amazonensis promastigotes, MTT method; format: cell-based, Leishmania amazonensis
Procedure: The MHOM/BR/pH8 strain was transferred to the NNN solid medium (Novy-MacNeal-Nicolle) for 48 h at 24 °C.
(Sigma-Aldrich) method was used. This method evaluates the cell viability by the activity of mitochondrial succinate dehydrogenase enzyme that cleaves the tetrazolium salt to form formazan crystals in living cells. For the cultures of P. falciparum-infected erythrocytes, the IC50 were determined by optical microscopy.
Then, 10 μL of MTT solution (5 mg/mL) was added to all wells and the cultures were re-incubated at the same condition for 4 h, but protected from light. […] The results were expressed in percentage.

[3] = Cytotoxicity to peritoneal cells, MTT method; format: cell-based, Swiss mice; details: both sexes, Swiss, mouse, peritoneal cells (>99% macrophages), 6 h incubation, read-out: Estimated CC50 peritoneal cell 6 h
Procedure: To obtain peritoneal cells, six adult Swiss mice (male and female), weighing 30 ± 6 g, were used. During the experiments, the animals were kept in the Faculty of Medicine, University of Brasilia under ambient temperature, light/dark cycle of 12 h, fed with balanced diet and water ad libitum. The study was approved by the Ethics Committee on Animal Use (CEUA) of the Institute of Biological Sciences at University of Brasilia (Doc. no. 22199/2014).
To assess inhibitory or cytotoxic concentrations of the compounds (1–5), able to eliminate 50% of the cells in the cultures of L. amazonensis (IC50) and cytotoxic concentrations (CC50) in the cultures of peritoneal cell, MTT [3-(4,5-dimethylthiazol-2-yl)-2,5-diphenyltetrazolium bromide] (Sigma-Aldrich) method was used. This method evaluates the cell viability by the activity of mitochondrial succinate dehydrogenase enzyme that cleaves the tetrazolium salt to form formazan crystals in living cells. […]
Initially, cells obtained by washing the peritoneal cavity of the mice with 10 mL of PBS pH 7.2 at 4 °C, centrifuged at 400 g for 10 min and suspended with 1 mL of RPMI 1640 medium were quantified at Neubauer chamber with 0.05% of nigrosin solution. […] The formazan crystals were solubilized with 50 μL of DMSO/well and the absorbance obtained in spectrophotometer (Spectra Max® Plus 384) with 550 nm. […]

`C[C@H]1[C@H](OC(=O)CCC(=O)O)O[C@@H]2O[C@@]3(C)CC[C@H]4[C@H](C)CC[C@@H]1[C@@]24OO3` [artesunate, reference compound] showed an inhibition at 0.008 µg/mL ([1]; 48 h incubation, read-out: Inhibition of the parasites (P. falciparum) 48 h) of 79.8% and an inhibition at 0.008 µg/mL ([1]; 72 h incubation, read-out: Inhibition of the parasites (P. falciparum) 72 h) of 90%.

Work on `COc1cc(C=CC(=O)N2CCCCC2)cc(OC)c1OC` [piperidine analogue] yielded an IC50 ([2]; previous screening, data not shown, read-out: IC50 on growth of L. amazonensis promastigotes) of 2300 µM.

With `CNC[C@H](O)[C@@H](O)[C@H](O)[C@H](O)CO.[O]=[Sb](=[O])[OH]` [N-metilglucamine, antimoniate of N-metilglucamine, reference compound] the “Inhibition of the parasites (L. amazonensis)” value ([2]; positive control, 4 μg/mL, 6 h incubation) was 55.4%.

With `COc1cc(/C=C/C(=O)N2CCC=CC2=O)cc(OC)c1OC` [Compound 1, 1-[(E)-3-(3,4,5-trimethoxyphenyl)prop-2-enoyl]-2,3-dihydropyridin-6-one] the “Selectivity Index (SI) = CC50/IC50, L. amazonensis” value ([2]; CC50 peritoneal cells 6 h / IC50 L. amazonensis 6 h) was 1.3, the “Inhibitory activity relative to piperidine analogue (fold)” value ([2]; L. amazonensis promastigotes, fold superior to piperidine analogue (IC50 2297.9 μM)) was 4.07 fold and the IC50 ([2]; Leishmania amazonensis, 6 h, read-out: Estimated IC50 L. amazonensis 6 h) was 564 µM and 179 µg/mL. For the same molecule, the IC50 ([1]; 48 h, read-out: Estimated IC50 P. falciparum 48 h) was 19.5 µM and 6.2 µg/mL, the inhibition at 64 µg/mL ([1]; 48 h, read-out: Inhibition of growth of parasites (P. falciparum)) was 100% and the IC50 ([1]; 72 h, read-out: Estimated IC50 P. falciparum 72 h) was 10.1 µM and 3.2 µg/mL. The inhibition at 8 µg/mL ([1]; 72 h, read-out: Inhibition of growth of parasites (P. falciparum)) was 100% and the CC50 at 6 h [3] was 731 µM and 232 µg/mL.
